Patent EP2931723B1, “NEW BICYCLIC COMPOUNDS AND THEIR USE AS ANTIBACTERIAL AGENTS AND -LACTAMASE INHIBITORS” (Fedora Pharmaceuticals Inc., priority 2012, dated 2014)

Columns and labels:
Test in all cases: MIC, antibacterial and synergistic activity
Format in all cases: cell-based
[1] = tested on: E. coli JMI 11103
[2] = tested on: E. coli JMI 10768; details: E. coli JMI 10768 (CTX-M15 (Weak ESBL)); Meropenem + inhibitor at 4 µg/mL
[3] = tested on: K. pneumo JMI 2673; details: K. pneumo JMI 2673 (CTX-M14 (ESBL)); substance alone
[4] = tested on: P. aerug JMI 149; details: P. aerug JMI 149 (Bla+++D+)
[5] = tested on: K.pneumo JMI 4109; details: K.pneumo JMI 4109 (SHV-1, SHV-12); substance alone
[6] = tested on: K. pneumo JMI 2681; details: K. pneumo JMI 2681 (Oxa-48 (Cpase))
[7] = tested on: E. coli ATCC 25922; details: E. coli ATCC 25922 (Wt)
[8] = tested on: P. aerug JMI 2686; details: P. aerug JMI 2686 (KPC-2 (Cpase)); substance alone
[9] = tested on: K. pneumo JMI 4088; details: K. pneumo JMI 4088 (KPC-3 (Cpase)); substance alone
[10] = tested on: E. coli JMI 10767; details: E. coli JMI 10767 (Wt)
[11] = tested on: K. pneumo JMI 4106; details: K. pneumo JMI 4106 (KPC-3, TEM-1, SHV-12, SHV-141)
[12] = tested on: E. cloacae JMI 36; details: E. cloacae JMI 36 (P99)
[13] = tested on: K. pneumo JMI 2674; details: K. pneumo JMI 2674 (CTX-M15 (ESBL)); substance alone
[14] = tested on: K. pneumo JMI 2699; details: K. pneumo JMI 2699 (VIM-1, CTX-M3)
Summary of the method: (§1)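 MBL strains; antibiotic + inhibitor 4 µg/mL; MIC.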

[15] = tested on: K.pneumo JMI 4109; details: K.pneumo JMI 4109 (SHV-1, SHV-12)
Summary of the method: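 Antibacterial synergy was assessed by pairing each inhibitor compound, at a constant concentration of 4 µg/mL, with β-lactam antibiotics. The combinations were run against bacterial strains that produce β-lactamases, and the readout was the minimum inhibitory concentration of the antibiotic in the presence of the inhibitor.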

[16] = tested on: E. coli JMI 2671
Summary of the method: as §1

[17] = tested on: K. pneumo JMI 4088; details: K. pneumo JMI 4088 (KPC-3 (Cpase))
Summary of the method: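 Minimum inhibitory concentrations were measured for antibiotics given together with the test inhibitor, held at 4 µg/mL, against bacteria that produce β-lactamase. The purpose was to see whether the inhibitor restores or boosts antibacterial activity, that is, synergy with the antibiotic.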

[18] = tested on: K. pneumo JMI 2674; details: K. pneumo JMI 2674 (CTX-M15 (ESBL))
Summary of the method: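 Antibacterial activity was assessed as minimum inhibitory concentrations against a β-lactamase-producing bacterial strain. Each test inhibitor was combined with an antibiotic, with the inhibitor held at a fixed 4 µg/mL, to determine whether it acted synergistically and restored the antibiotic's effect against the resistant organism.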

[19] = tested on: E. coli JMI 10768; details: E. coli JMI 10768 (CTX-M15 (Weak ESBL))
Procedure: (§2) In the Tables 10 - 12, compounds herein disclosed were tested in combination with various antibiotics against metallo β-lactamase producing bacteria. Table 3: Synergy of the inhibitor Ex. 1 (4 µg/mL) in combination with antibiotics

[20] = tested on: E. coli JMI 2665
Procedure: as §2

[21] = tested on: E. coli JMI 10767; details: E. coli JMI 10767 (Wt); remark: listed apart in the source
Procedure: as §2

[22] = tested on: E. coli JMI 10770; details: E. coli JMI 10770 (CTX-M15 (Hyper ESBL))
Procedure: as §2

[23] = tested on: E. coli JMI 10770; details: Escherichia coli, JMI10770; E. coli JMI 10770 (CTX-M15 (Hyper ESBL)); substance alone
[24] = Aztreonam + inhibitor at 4 µg/mL
[25] = Ceftazidime + inhibitor at 4 µg/mL
[26] = Meropenem + inhibitor at 4 µg/mL

With `CC(=O)NNC(=O)[C@@H]1CC[C@@H]2CN1C(=O)N2OS(=O)(=O)O` [Ex. 5, (2S,5R)-N'-acetyl-7-oxo-6-(sulfooxy)-1,6-diazabicyclo[3.2.1]octane-2-carbohydrazide] the “MIC Aztreonam + inhibitor” value ([1]; E. coli JMI 11103 (CTX-M15 (Intermediate ESBL)), Aztreonam + inhibitor at 4 µg/mL) was at most 0.062 µg/mL, the “MIC Ceftazidime + inhibitor” value ([1]; E. coli JMI 11103 (CTX-M15 (Intermediate ESBL)), Ceftazidime + inhibitor at 4 µg/mL) was at most 0.25 µg/mL and the “MIC Meropenem + inhibitor” value ([1]; E. coli JMI 11103 (CTX-M15 (Intermediate ESBL)), Meropenem + inhibitor at 4 µg/mL) was at most 0.031 µg/mL. For the same compound, the MIC ([1]; Escherichia coli, JMI11103, E. coli JMI 11103 (CTX-M15 (Intermediate ESBL)), substance alone) was 8 µg/mL, the “MIC Meropenem + inhibitor” value [2] was at most 0.031 µg/mL and the MIC [3] was over 16 µg/mL. The “MIC Aztreonam + inhibitor” value [4, 24] was over 4 µg/mL, the “MIC Ceftazidime + inhibitor” value [4, 25] was over 16 µg/mL and the “MIC Meropenem + inhibitor” value [4, 26] was 0.5 µg/mL. For the same compound, the MIC ([4]; substance alone, read-out: MIC) was over 16 µg/mL, the MIC [5] was over 16 µg/mL and the “MIC Aztreonam + inhibitor” value [6, 24] was 0.5 µg/mL. For the same compound, the “MIC Ceftazidime + inhibitor” value [6, 25] was at most 0.25 µg/mL, the “MIC Meropenem + inhibitor” value [6, 26] was 2 µg/mL and the MIC ([6]; substance alone, read-out: MIC) was 16 µg/mL. The “MIC Aztreonam + inhibitor” value [7, 24] was at most 0.062 µg/mL, the “MIC Ceftazidime + inhibitor” value [7, 25] was at most 0.25 µg/mL and the “MIC Meropenem + inhibitor” value [7, 26] was at most 0.031 µg/mL. The MIC ([7]; Escherichia coli, ATCC25922, substance alone) was 2 µg/mL, the MIC [8] was 16 µg/mL and the MIC [9] was over 16 µg/mL. The “MIC Meropenem + inhibitor” value [10, 26] was at most 0.031 µg/mL, the MIC ([10]; Escherichia coli, JMI10767, substance alone) was 8 µg/mL and the “MIC Aztreonam + inhibitor” value [11, 24] was 1 µg/mL. For the same compound, the “MIC Ceftazidime + inhibitor” value [11, 25] was 0.5 µg/mL, the “MIC Meropenem + inhibitor” value [11, 26] was 2 µg/mL and the MIC ([11]; substance alone, read-out: MIC) was over 16 µg/mL. The “MIC Aztreonam + inhibitor” value [12, 24] was over 4 µg/mL, the “MIC Ceftazidime + inhibitor” value [12, 25] was 16 µg/mL and the “MIC Meropenem + inhibitor” value [12, 26] was 0.125 µg/mL. The MIC ([12]; Enterobacter cloacae, JMI36, substance alone, read-out: MIC) was over 16 µg/mL, the MIC [13] was over 16 µg/mL and the “MIC Aztreonam + inhibitor” value [14, 24] was at most 0.062 µg/mL. For the same compound, the “MIC Ceftazidime + inhibitor” value [14, 25] was 2 µg/mL, the “MIC Meropenem + inhibitor” value [14, 26] was at most 0.031 µg/mL and the MIC ([14]; substance alone, read-out: MIC) was over 16 µg/mL. The “MIC Aztreonam + inhibitor” value [15, 24] was at most 0.062 µg/mL, the “MIC Ceftazidime + inhibitor” value [15, 25] was at most 0.25 µg/mL and the “MIC Meropenem + inhibitor” value [15, 26] was at most 0.031 µg/mL. The “MIC Aztreonam + inhibitor” value ([16]; E. coli JMI 2671 (VIM-19 (Cpase)), Aztreonam + inhibitor at 4 µg/mL) was at most 0.062 µg/mL, the “MIC Ceftazidime + inhibitor” value ([16]; E. coli JMI 2671 (VIM-19 (Cpase)), Ceftazidime + inhibitor at 4 µg/mL) was 2 µg/mL and the “MIC Meropenem + inhibitor” value ([16]; E. coli JMI 2671 (VIM-19 (Cpase)), Meropenem + inhibitor at 4 µg/mL) was 0.25 µg/mL. The MIC ([16]; Escherichia coli, JMI2671, E. coli JMI 2671 (VIM-19 (Cpase)), substance alone) was 16 µg/mL, the “MIC Aztreonam + inhibitor” value [17, 24] was 0.25 µg/mL and the “MIC Ceftazidime + inhibitor” value [17, 25] was at most 0.25 µg/mL. For the same compound, the “MIC Meropenem + inhibitor” value [17, 26] was 0.125 µg/mL, the “MIC Aztreonam + inhibitor” value [18, 24] was 0.125 µg/mL and the “MIC Ceftazidime + inhibitor” value [18, 25] was at most 0.25 µg/mL. The “MIC Meropenem + inhibitor” value [18, 26] was 0.062 µg/mL, the “MIC Aztreonam + inhibitor” value [19, 24] was at most 0.062 µg/mL and the “MIC Ceftazidime + inhibitor” value [19, 25] was at most 0.25 µg/mL. For the same compound, the MIC ([19]; Escherichia coli, JMI10768, substance alone) was 8 µg/mL, the “MIC Aztreonam + inhibitor” value ([20]; E. coli JMI 2665 (CMY-2 (Plasmid Cpase)), Aztreonam + inhibitor at 4 µg/mL) was at most 0.062 µg/mL and the “MIC Ceftazidime + inhibitor” value ([20]; E. coli JMI 2665 (CMY-2 (Plasmid Cpase)), Ceftazidime + inhibitor at 4 µg/mL) was at most 0.25 µg/mL. For the same compound, the “MIC Meropenem + inhibitor” value ([20]; E. coli JMI 2665 (CMY-2 (Plasmid Cpase)), Meropenem + inhibitor at 4 µg/mL) was at most 0.031 µg/mL, the MIC ([20]; Escherichia coli, JMI2665) was 2 µg/mL and the “MIC Aztreonam + inhibitor” value [21, 24] was at most 0.062 µg/mL. For the same compound, the “MIC Ceftazidime + inhibitor” value [21, 25] was at most 0.25 µg/mL, the “MIC Aztreonam + inhibitor” value [22, 24] was at most 0.062 µg/mL and the “MIC Ceftazidime + inhibitor” value [22, 25] was at most 0.25 µg/mL. The “MIC Meropenem + inhibitor” value [22, 26] was at most 0.031 µg/mL and the MIC [23] was 8 µg/mL.
